Where a SMILES comes first, the peptide text is derived from it. [ ]: non-standard residue; d: D form. The star is where a group is joined. ξ: configuration not given here. Hydrocinnamoyl = O=C(CCc1ccccc1)*; Nicotinoyl = O=C(c1cccnc1)*; ξF = NC(Cc1ccccc1)C(=O)O; Cbz = O=C(OCc1ccccc1)*; Hexanoyl = CCCCCC(=O)*; PhAc = O=C(Cc1ccccc1)*; Boc = CC(C)(C)OC(=O)*; Butyryl = CCCC(=O)*; Bz = O=C(c1ccccc1)* A value given as a limit tells only on which side of the number the result lay.

A short description of assay [1]: Inhibition of human recombinant Cathepsin L-like protease using Z-FR-AMC as substrate preincubated for 30 mins followed by substrate addition and measured after 1.5 hrs by fluorescence based analysis.
The target of assay [2] is Replicase polyprotein 1ab (Severe acute respiratory syndrome coronavirus 2, UniProt P0DTD1). Put plainly: Inhibition of recombinant SARS-CoV-2 3CLpro using MCA-AVLQSGFR-Lys(Dnp)-Lys-NH2 as substrate incubated for 1.5 hrs by fluorescence based analysis.

`CC(C)C[C@H](NC(=O)OCc1ccccc1)C(=O)N[C@H](C=O)Cc1ccccc1` (Cbz-Leu-Phe-aldehyde): the figures for the IC50 in assay [1] and in assay [2] were 0.00988 µM and over 10 µM, respectively. For the molecule `CC(C)[C@H](NC(=O)/C=C/c1ccccc1)C(=O)N[C@H](C=O)Cc1ccccc1`, the IC50 (as a rule, the concentration that gives 50% inhibition) is 0.022 µM in assay [1] and over 10 µM in assay [2].

`CC(C)C[C@H](NC(=O)/C=C/c1cccc(Cl)c1)C(=O)N[C@H](C=O)Cc1ccccc1`: the IC50 in assay [1] is 0.0271 µM; in assay [2], over 10 µM. For `O=C[C@H](Cc1ccccc1)NC(=O)[C@H](Cc1ccc(F)cc1)NC(=O)/C=C/c1ccccc1`, the results for the half-inhibitory concentration (IC50) in assay [1] and in assay [2] were 0.00668 µM and over 10 µM, respectively. For the molecule `CC(C)C[C@H](NC(=O)/C=C/c1ccccc1)C(=O)N[C@H](C=O)Cc1ccccc1Br`, the IC50 was 0.18 µM in assay [1] and over 10 µM in assay [2]. Consider `CC(C)C[C@H](NC(=O)/C=C/c1ccc(Br)cc1)C(=O)N[C@H](C=O)Cc1ccccc1`, for which the concentration for half-maximal inhibition (IC50) in assay [1] was 0.0384 µM; in assay [2], over 10 µM. Taken in the same sequence, the figures for `O=C[C@H](Cc1ccccc1)NC(=O)[C@H](Cc1ccccc1)NC(=O)/C=C/c1ccccc1` were 0.00665 µM and over 10 µM.

In the case of `CCC[C@H](NC(=O)/C=C/c1ccccc1)C(=O)N[C@H](C=O)Cc1ccccc1`, the results for the IC50 in assay [1] and in assay [2] were 0.125 µM and over 10 µM, respectively. With `CC(C)C[C@H](NC(=O)/C=C/c1ccccc1)C(=O)N[C@@H](Cc1ccccc1)C(N)=O`, the figures for the half-maximal inhibitory concentration (IC50) in assay [1] and in assay [2] were over 1 µM and over 10 µM, respectively. For the molecule `CC(C)C[C@H](NC(=O)Cc1c[nH]c2ccccc12)C(=O)N[C@H](C=O)Cc1ccccc1`, the IC50 in assay [1] is 0.00318 µM; in assay [2] it was over 10 µM.

On to `O=C[C@H](Cc1ccccc1)NC(=O)[C@H](Cc1ccc(Cl)cc1)NC(=O)/C=C/c1ccccc1`, for which the values for the concentration for half-maximal inhibition (IC50) in assay [1] and in assay [2] were 0.00891 µM and over 10 µM, respectively. On to `CC(C)C[C@H](NC(=O)/C=C/c1ccc(Cl)cc1)C(=O)N[C@H](C=O)Cc1ccccc1`, for which the figures for the IC50 in assay [1] and in assay [2] were 0.0235 µM and over 10 µM, respectively. With `O=C[C@H](Cc1ccccc1)NC(=O)[C@H](CC1CCCCC1)NC(=O)/C=C/c1ccccc1`, the IC50 in assay [1] was 0.053 µM; in assay [2] it was over 10 µM. `CC(C)C[C@H](NC(=O)c1ccc(Br)cc1)C(=O)N[C@H](C=O)Cc1ccccc1`: the results for the concentration for half-maximal inhibition (IC50) in assay [1] and in assay [2] were 0.00959 µM and over 10 µM, respectively.

Consider `O=C[C@H](Cc1ccccc1)NC(=O)[C@H](Cc1ccc(Br)cc1)NC(=O)/C=C/c1ccccc1`, for which the IC50 in assay [1] is 0.0116 µM; in assay [2] it was over 10 µM. Turning to `CC(C)C[C@H](NC(=O)/C=C/c1ccc(F)cc1)C(=O)N[C@H](C=O)Cc1ccccc1`, the figures for the IC50 in assay [1] and in assay [2] were 0.0201 µM and over 10 µM, respectively. In the case of `CC(C)[C@H](NC(=O)OCc1ccccc1)C(=O)NC(C=O)Cc1ccccc1` (stereo partly drawn) (Cbz-Val-[ξF]-aldehyde), in assay [1], the IC50 amounted to 19.9 µM. On to `CC(C)C[C@H](NC(=O)c1cccc2ccccc12)C(=O)N[C@H](C=O)Cc1ccccc1`, for which the IC50 in assay [1] was 0.00126 µM; in assay [2], over 10 µM. Turning to `CC(C)C[C@H](NC(=O)c1ccccc1F)C(=O)N[C@H](C=O)Cc1ccccc1`, the figures for the IC50 in assay [1] and in assay [2] were 0.00966 µM and over 10 µM, respectively. Regarding `COc1ccc(C(=O)N[C@@H](CC(C)C)C(=O)N[C@H](C=O)Cc2ccccc2)cc1`, the IC50 in assay [1] is 0.00606 µM; in assay [2], over 10 µM.

Consider `C=Cc1ccc(C(=O)N[C@@H](CC(C)C)C(=O)N[C@H](C=O)Cc2ccccc2)cc1`, for which the IC50 is 0.00941 µM in assay [1] and over 10 µM in assay [2]. With `CC(C)C[C@H](NC(=O)/C=C/c1ccc(C(F)(F)F)cc1)C(=O)N[C@H](C=O)Cc1ccccc1`, the figures for the IC50 in assay [1] and in assay [2] were 0.0758 µM and over 10 µM, respectively. Take `CC(C)C[C@H](NC(=O)OC(C)(C)C)C(=O)N[C@H](C=O)Cc1ccccc1` (Boc-Leu-Phe-aldehyde): the IC50 in assay [1] is 0.165 µM; in assay [2] it was over 10 µM. Regarding `CC(C)C[C@H](NC(=O)/C=C/c1ccccc1Cl)C(=O)N[C@H](C=O)Cc1ccccc1`, the results for the IC50 in assay [1] and in assay [2] were 0.00957 µM and over 10 µM, respectively. Regarding `O=C[C@H](Cc1ccccc1)NC(=O)[C@H](Cc1cccc(F)c1)NC(=O)/C=C/c1ccccc1`, the figures for the IC50 in assay [1] and in assay [2] were 0.00656 µM and over 10 µM, respectively. For the molecule `CC(C)C[C@H](NC(=O)c1ccncc1)C(=O)N[C@H](C=O)Cc1ccccc1`, the figures for the IC50 in assay [1] and in assay [2] were 0.00846 µM and over 10 µM, respectively. In the case of `CC(C)C[C@H](NC(=O)C1CCCCC1)C(=O)N[C@H](C=O)Cc1ccccc1`, the figures for the IC50 in assay [1] and in assay [2] were 0.00606 µM and over 10 µM, respectively. Take `CC(C)C[C@H](NC(=O)c1ccc(-c2ccccc2)cc1)C(=O)N[C@H](C=O)Cc1ccccc1`: the half-maximal inhibitory concentration (IC50) in assay [1] is 0.0209 µM; in assay [2] it was over 10 µM. For `CC(C)C[C@H](NC(=O)c1ccc[nH]1)C(=O)N[C@H](C=O)Cc1ccccc1`, the 50% inhibitory concentration (IC50) was 0.0377 µM in assay [1] and over 10 µM in assay [2].

Take `CC(C)C[C@H](NC(=O)c1ccoc1)C(=O)N[C@H](C=O)Cc1ccccc1`: the half-maximal inhibitory concentration (IC50) in assay [1] is 0.0242 µM; in assay [2], over 10 µM. The like results for `CC[C@H](C)[C@H](NC(=O)/C=C/c1ccccc1)C(=O)N[C@H](C=O)Cc1ccccc1` were, in that order, 0.17 µM and over 10 µM.

In the case of `CCCC(=O)N[C@@H](CC(C)C)C(=O)N[C@H](C=O)Cc1ccccc1` (Butyryl-Leu-Phe-aldehyde), the half-maximal inhibitory concentration (IC50) is 0.0727 µM in assay [1] and over 10 µM in assay [2].

As to `COc1ccc(/C=C/C(=O)N[C@@H](CC(C)C)C(=O)N[C@H](C=O)Cc2ccccc2)cc1`, the figures for the half-inhibitory concentration (IC50) in assay [1] and in assay [2] were 0.0554 µM and over 10 µM, respectively. Regarding `CC(C)C[C@H](NC(=O)c1ccsc1)C(=O)N[C@H](C=O)Cc1ccccc1`, the results for the 50% inhibitory concentration (IC50) in assay [1] and in assay [2] were 0.00815 µM and over 10 µM, respectively. As to `CC(C)C[C@H](NC(=O)/C=C/c1ccccc1F)C(=O)N[C@H](C=O)Cc1ccccc1`, the figures for the half-maximal inhibitory concentration (IC50) in assay [1] and in assay [2] were 0.0165 µM and over 10 µM, respectively. Taken in the same sequence, the figures for `CC(C)C[C@H](NC(=O)c1ccco1)C(=O)N[C@H](C=O)Cc1ccccc1` were 0.0174 µM and over 10 µM. With `COC(=O)/C=C/[C@H](Cc1ccccc1)NC(=O)[C@H](CC(C)C)NC(=O)/C=C/c1ccccc1`, the half-maximal inhibitory concentration (IC50) is over 1 µM in assay [1] and over 10 µM in assay [2].

For `CC(C)C[C@H](NC(=O)/C=C/c1ccccc1)C(=O)N[C@H](C=O)Cc1ccc([N+](=O)[O-])cc1`, the values for the half-maximal inhibitory concentration (IC50) in assay [1] and in assay [2] were 0.345 µM and over 10 µM, respectively. In the case of `CC(C)C[C@H](NC(=O)/C=C/c1ccccc1)C(=O)N[C@@H](C=O)Cc1ccccc1`, the half-inhibitory concentration (IC50) in assay [1] was over 1 µM; in assay [2], over 10 µM.

Take `O=C[C@H](Cc1ccccc1)NC(=O)[C@H](Cc1ccccc1F)NC(=O)/C=C/c1ccccc1`: the figures for the IC50 in assay [1] and in assay [2] were 0.00682 µM and over 10 µM, respectively. Taken in the same sequence, the figures for `CC(C)C[C@H](NC(=O)c1ccc2ccccc2c1)C(=O)N[C@H](C=O)Cc1ccccc1` were 0.00283 µM and over 10 µM. With `CC(C)C[C@H](NC(=O)c1cccnc1)C(=O)N[C@H](C=O)Cc1ccccc1` (Nicotinoyl-Leu-Phe-aldehyde), the 50% inhibitory concentration (IC50) in assay [1] is 0.0144 µM; in assay [2] it was over 10 µM. As to `CC(C)C[C@H](NC(=O)/C=C/c1ccccc1)C(=O)N[C@H](C=O)Cc1cccc(F)c1`, the half-inhibitory concentration (IC50) in assay [1] is 0.162 µM; in assay [2] it was over 10 µM. On to `CC(C)C[C@H](NC(=O)c1ccccn1)C(=O)N[C@H](C=O)Cc1ccccc1`, for which the 50% inhibitory concentration (IC50) in assay [1] is 0.0264 µM; in assay [2], over 10 µM. The like results for `CC(C)C[C@H](NC(=O)c1ccccc1)C(=O)N[C@H](C=O)Cc1ccccc1` (Bz-Leu-Phe-aldehyde) were, in that order, 0.00756 µM and over 10 µM. Consider `CCCCCC(=O)N[C@@H](CC(C)C)C(=O)N[C@H](C=O)Cc1ccccc1` (Hexanoyl-Leu-Phe-aldehyde), for which the IC50 in assay [1] is 0.0346 µM; in assay [2], over 10 µM.

As to `CC(C)C[C@H](NC(=O)/C=C/c1ccccc1)C(=O)N[C@@H](Cc1ccccc1)C(=O)CCl`, the IC50 in assay [1] was 0.00987 µM; in assay [2] it was over 10 µM.

On to `CC(C)C[C@H](NC(=O)c1cccc(F)c1)C(=O)N[C@H](C=O)Cc1ccccc1`, for which the half-maximal inhibitory concentration (IC50) in assay [1] was 0.0075 µM; in assay [2] it was over 10 µM. On to `CC(C)C[C@H](NC(=O)c1ccc(Cl)cc1)C(=O)N[C@H](C=O)Cc1ccccc1`, for which the IC50 was 0.00947 µM in assay [1] and over 10 µM in assay [2]. Taken in the same sequence, the figures for `CC(C)C[C@H](NC(=O)Cc1ccccc1)C(=O)N[C@H](C=O)Cc1ccccc1` (PhAc-Leu-Phe-aldehyde) were 0.00782 µM and over 10 µM. Take `CC(C)C[C@H](NC(=O)/C=C/c1ccccc1)C(=O)N[C@H](C=O)CCc1ccccc1`: the IC50 in assay [1] was 0.026 µM; in assay [2] it was over 10 µM. Take `CCCC[C@H](NC(=O)/C=C/c1ccccc1)C(=O)N[C@H](C=O)Cc1ccccc1`: the concentration for half-maximal inhibition (IC50) was 0.157 µM in assay [1] and over 10 µM in assay [2]. The like results for `CC(C)C[C@H](NC(=O)/C=C/c1ccccc1)C(=O)N[C@H](C=O)Cc1ccc(F)cc1` were, in that order, 0.0741 µM and over 10 µM. As for `CC(C)C[C@H](NC(=O)CCc1ccccc1)C(=O)N[C@H](C=O)Cc1ccccc1` (Hydrocinnamoyl-Leu-Phe-aldehyde), the IC50 in assay [1] was 0.0182 µM; in assay [2], over 10 µM.

In the case of `CC(C)C[C@H](NC(=O)/C=C/c1ccccc1)C(=O)N[C@H](C=O)C(C)C`, the IC50 is 0.0234 µM in assay [1] and over 10 µM in assay [2].

In the case of `CC(C)C[C@H](NC(=O)c1cc[nH]c1)C(=O)N[C@H](C=O)Cc1ccccc1`, the IC50 is 0.0373 µM in assay [1] and over 10 µM in assay [2]. Regarding `CC(C)(C)[C@H](NC(=O)/C=C/c1ccccc1)C(=O)N[C@H](C=O)Cc1ccccc1`, the IC50 in assay [1] is 0.182 µM; in assay [2], over 10 µM.

With `CC(C)C[C@H](NC(=O)c1ccc2[nH]ccc2c1)C(=O)N[C@H](C=O)Cc1ccccc1`, the IC50 in assay [1] was 0.00205 µM; in assay [2], over 10 µM.

Take `C[C@H](NC(=O)/C=C/c1ccccc1)C(=O)N[C@H](C=O)Cc1ccccc1`: the figures for the 50% inhibitory concentration (IC50) in assay [1] and in assay [2] were 0.0421 µM and over 10 µM, respectively. `CC(C)C[C@H](NC(=O)/C=C/c1ccccc1)C(=O)N[C@H](C=O)CC1CCCCC1`: the IC50 in assay [1] was 0.0478 µM; in assay [2], over 10 µM.

Values taken from ChEMBL document CHEMBL6120945, “Peptidomimetic Analogues Act as Effective Inhibitors against SARS-CoV-2 by Blocking the Function of Cathepsin L” (J Med Chem, 2024).
